The experiment addresses pHipA (Escherichia coli, UniProt P23874). The experiment is described as follows: ITC. The conditions noted are these: no binding.

SMILES strings stand for the structures.

Chain of pHipA (P23874 whole entry, looked up): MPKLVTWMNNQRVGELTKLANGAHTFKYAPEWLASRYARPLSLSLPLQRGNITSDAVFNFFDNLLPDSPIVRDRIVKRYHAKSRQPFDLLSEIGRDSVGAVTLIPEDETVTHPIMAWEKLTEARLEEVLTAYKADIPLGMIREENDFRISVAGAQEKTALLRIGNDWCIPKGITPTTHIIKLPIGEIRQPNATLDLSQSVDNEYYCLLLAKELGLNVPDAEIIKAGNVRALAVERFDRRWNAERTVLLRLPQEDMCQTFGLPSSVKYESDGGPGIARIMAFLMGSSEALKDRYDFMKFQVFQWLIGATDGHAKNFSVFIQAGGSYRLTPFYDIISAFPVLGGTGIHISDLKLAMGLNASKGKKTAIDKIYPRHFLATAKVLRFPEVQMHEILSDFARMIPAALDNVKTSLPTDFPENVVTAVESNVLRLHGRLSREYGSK

On to `Nc1ncnc2c1ncn2[C@@H]1O[C@H](COP(=O)(O)OP(=O)(O)NP(=O)(O)O)[C@@H](O)[C@H]1O` [AMPPNP], for which the ITC entry is listed as “revealed no interaction between ATP or the nonhydrolyzable ATP analogue, AMPPNP”.

The record behind these values is article PMC4831868 (Cell reports, 2012).
